{"source": "ChEMBL document CHEMBL4184087", "about": "“Synthesis, optical properties and cytotoxicity of meso-heteroatom substituted IR-786 analogs” (Bioorg Med Chem Lett, 2018)", "key": {"PC-3": {"system": "PC-3", "assay": "Antiproliferative activity against human PC3 cells after 48 hrs by MTT assay", "format": "functional, cell-based", "conditions": "PC-3, 48 h"}, "[1]": {"assay": "Photostability of the compound in anhydrous methanol solution under UV irradiation of 15 W after 24 hrs by UV-vis spectroscopic analysis"}, "[2]": {"assay": "Stability of the compound in anhydrous methanol solution under dark condition after 24 hrs by UV-vis spectroscopic analysis"}}, "data": [{"smiles": "CN1/C(=C/C=C2\\CCCC(/C=C/C3=[N+](C)c4ccccc4C3(C)C)=C2Sc2ccncc2)C(C)(C)c2ccccc21.[I-]", "values": [{"measurement": "IC50", "setting": "PC-3", "value": 12.5, "unit": "µM"}, {"measurement": "Stability", "setting": "[1]", "value": "Stable"}, {"measurement": "Stability", "setting": "[2]", "value": "Stable"}]}, {"smiles": "CN(C)CCSC1=C(/C=C/C2=[N+](C)c3ccccc3C2(C)C)CCC/C1=C\\C=C1\\N(C)c2ccccc2C1(C)C", "values": [{"measurement": "IC50", "setting": "PC-3", "value": 6.04, "unit": "µM"}]}, {"smiles": "CN1/C(=C/C=C2\\CCCC(/C=C/C3=[N+](C)c4ccccc4C3(C)C)=C2Oc2ccncc2)C(C)(C)c2ccccc21.[I-]", "values": [{"measurement": "IC50", "setting": "PC-3", "value": 5.22, "unit": "µM"}, {"measurement": "Stability", "setting": "[1]", "value": "Stable"}, {"measurement": "Stability", "setting": "[2]", "value": "Stable"}]}, {"smiles": "COc1cccc2c1C(=O)c1c(O)c3c(c(O)c1C2=O)C[C@@](O)(C(=O)CO)C[C@@H]3O[C@H]1C[C@H](N)[C@H](O)[C@H](C)O1", "note": "[DOXORUBICIN]", "values": [{"measurement": "IC50", "setting": "PC-3", "value": 2.6, "unit": "µM"}]}, {"smiles": "CN(CCO)C1=C(/C=C/C2=[N+](C)c3ccccc3C2(C)C)CCC/C1=C\\C=C1\\N(C)c2ccccc2C1(C)C", "values": [{"measurement": "IC50", "setting": "PC-3", "value": 9.23, "unit": "µM"}]}, {"smiles": "CCN(CCO)C1=C(/C=C/C2=[N+](C)c3ccccc3C2(C)C)CCC/C1=C\\C=C1\\N(C)c2ccccc2C1(C)C", "values": [{"measurement": "IC50", "setting": "PC-3", "value": 9.08, "unit": "µM"}]}, {"smiles": "CN1/C(=C/C=C2\\CCCC(/C=C/C3=[N+](C)c4ccccc4C3(C)C)=C2N2CCC(CO)CC2)C(C)(C)c2ccccc21", "values": [{"measurement": "IC50", "setting": "PC-3", "value": 9.33, "unit": "µM"}]}, {"smiles": "CN1/C(=C/C=C2\\CCCC(/C=C/C3=[N+](C)c4ccccc4C3(C)C)=C2NCCO)C(C)(C)c2ccccc21.[I-]", "values": [{"measurement": "IC50", "setting": "PC-3", "value": 4.73, "unit": "µM"}, {"measurement": "Stability", "setting": "[1]", "value": "Stable"}, {"measurement": "Stability", "setting": "[2]", "value": "Stable"}]}, {"smiles": "CN(C)CCNC1=C(/C=C/C2=[N+](C)c3ccccc3C2(C)C)CCC/C1=C\\C=C1\\N(C)c2ccccc2C1(C)C", "values": [{"measurement": "IC50", "setting": "PC-3", "value": 13.2, "unit": "µM"}]}]}
